This note sets out measurements from PubChem BioAssay (NCI).

Values joined by “and” are separate entries in the source; they are usually repeats but may differ in a detail not shown here. Identical values can stand only once.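 Each compound was tested at five concentrations against cells in 96-well plates for 48 hours. GI50 is the concentration that inhibits growth by half. Definition used: TGI = concentration required for complete inhibition of growth.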

Among the test systems are CCRF-CEM leukemia; COLO 205 colon; HL-60(TB) leukemia; IGROV1 ovarian; KM12 colon; MDA-MB-435; SF-295 CNS; SK-MEL-5 melanoma; T-47D breast; K-562 leukemia.
Assay in all cases: DTP human tumour cell line panel, 48 h

By GI50 is commonly meant the concentration that inhibits growth by half. The TGI is the concentration at which net growth stops. `S=C(N/N=C(/c1ccccc1)c1ccccn1)Nc1cccc(Cl)c1`: the 50% growth inhibitory concentration (GI50) is less than 0.001 µM with CCRF-CEM leukemia; 0.0168 µM in the assay on COLO 205 colon; 0.0152 µM in the assay with HL-60(TB) leukemia; 0.28 µM in the assay on IGROV1 ovarian; 0.144 µM with KM12 colon; 1.09 µM in the assay on MDA-MB-435. The GI50 in the assay with SF-295 CNS was 0.968 µM; in the assay with SK-MEL-5 melanoma, 0.358 µM; in the assay with T-47D breast it was 0.56 µM. Also, the TGI in the assay on CCRF-CEM leukemia is 0.0383 µM; with COLO 205 colon, 2.2 µM and 21.6 µM; in the assay with HL-60(TB) leukemia, 0.162 µM; with IGROV1 ovarian, 2.03 µM and 6.68 µM; with KM12 colon, 3.55 µM and 6.75 µM; with MDA-MB-435 it was 2.95 µM and 4.56 µM. Further, the TGI in the assay on SF-295 CNS is 5.36 µM and 5.17 µM; in the assay on SK-MEL-5 melanoma it was 1.46 µM and 4.08 µM.
As to `O=C(CCl)Nc1ccc2c(c1)C(=O)c1ccc(NC(=O)CCl)cc1C2=O`, the GI50 in the assay with CCRF-CEM leukemia was 0.127 µM; with HL-60(TB) leukemia, 0.454 µM; in the assay with IGROV1 ovarian it was 0.26 µM; in the assay on K-562 leukemia, 0.319 µM; in the assay on KM12 colon, 1.06 µM; in the assay on MDA-MB-435, 0.395 µM. For the same compound, the GI50 with SF-295 CNS is 1.44 µM; in the assay with SK-MEL-5 melanoma, 0.214 µM; in the assay on T-47D breast, 1.22 µM. For the same compound, the TGI in the assay with CCRF-CEM leukemia was 0.896 µM; in the assay on HL-60(TB) leukemia, 3.08 µM; in the assay on IGROV1 ovarian it was 1.15 µM; in the assay on K-562 leukemia, more than 100 µM; in the assay on KM12 colon it was 2.42 µM; in the assay with MDA-MB-435 it was 1.81 µM. Besides, the TGI was 3.29 µM in the assay on SF-295 CNS, 0.502 µM with SK-MEL-5 melanoma and 3.95 µM with T-47D breast.
Consider `COC(=O)c1ccc(C2SCC(=O)N2NC(=O)C(O)c2ccccc2)cc1` (configuration not stated), for which the GI50 with CCRF-CEM leukemia, in the assay on COLO 205 colon, with IGROV1 ovarian, with K-562 leukemia, in the assay on KM12 colon and in the assay on MDA-MB-435 was more than 100 µM each time. For the same compound, the GI50 with SF-295 CNS, in the assay with SK-MEL-5 melanoma and in the assay with T-47D breast was more than 100 µM in each case. The TGI in the assay with CCRF-CEM leukemia, in the assay on COLO 205 colon, in the assay on IGROV1 ovarian, in the assay with K-562 leukemia, in the assay with KM12 colon and in the assay with MDA-MB-435 was more than 100 µM in each case. Moreover, the concentration for total growth inhibition (TGI) in the assay on SF-295 CNS, in the assay on SK-MEL-5 melanoma and in the assay with T-47D breast was more than 100 µM each time.
Regarding `O=C1C(Cl)=C(Nc2cccc(O)c2)C(=O)N1c1cccc(Cl)c1Cl`, the GI50 with CCRF-CEM leukemia is 8.38 µM; in the assay with COLO 205 colon, 15.3 µM; in the assay with IGROV1 ovarian, 5.96 µM; in the assay with K-562 leukemia, 13.5 µM; in the assay on KM12 colon, 24.6 µM; in the assay on MDA-MB-435, 17.9 µM. Also, the figures for the GI50 with SF-295 CNS, in the assay with SK-MEL-5 melanoma and in the assay on T-47D breast were 3.28 µM, 7.01 µM and 16.8 µM, respectively. The TGI stood at 50.4 µM with CCRF-CEM leukemia; 38.9 µM in the assay on COLO 205 colon; 23.4 µM with IGROV1 ovarian; 29.6 µM in the assay on K-562 leukemia; 86.8 µM in the assay with KM12 colon; 43.1 µM with MDA-MB-435. Besides, the TGI in the assay on SF-295 CNS was determined as 25.2 µM; in the assay on SK-MEL-5 melanoma, 21.7 µM; in the assay on T-47D breast, 86.3 µM.
`C=C(CN1CCN(c2cccc(F)c2)CC1)c1ccc(C(=O)Nc2ccccc2N)cc1`: the GI50 in the assay with COLO 205 colon was 2.93 µM; with HL-60(TB) leukemia, 0.357 µM; in the assay with IGROV1 ovarian, 0.333 µM; with K-562 leukemia, 0.706 µM; in the assay on KM12 colon, 1.38 µM; in the assay with MDA-MB-435, 0.283 µM. In addition, the results for the GI50 in the assay on SF-295 CNS, with SK-MEL-5 melanoma and with T-47D breast were 2.77 µM, 1.91 µM and 4.38 µM, respectively. In addition, the TGI in the assay on COLO 205 colon turned out to be 9.09 µM; in the assay with HL-60(TB) leukemia it was 2.26 µM; in the assay with IGROV1 ovarian, 3.9 µM; in the assay on K-562 leukemia, 13.4 µM; in the assay with KM12 colon, 50.1 µM; in the assay on MDA-MB-435, 1.74 µM. In addition, the TGI was 73.6 µM with SF-295 CNS, 17.2 µM in the assay on SK-MEL-5 melanoma and more than 100 µM with T-47D breast.
Regarding `COc1ccc(Cn2c(Br)c3c(c2-c2cc(OC)c(OC)c(OC)c2)CCc2sc(NC(C)=O)nc2-3)cc1`, the GI50 was 2.53 µM in the assay on COLO 205 colon; 3.27 µM with HL-60(TB) leukemia; 4.46 µM with IGROV1 ovarian; 3.67 µM with K-562 leukemia; 4.03 µM with KM12 colon; 0.613 µM with MDA-MB-435. The results for the GI50 in the assay with SF-295 CNS, in the assay on SK-MEL-5 melanoma and in the assay with T-47D breast were 2.41 µM, 2.82 µM and 4.65 µM, respectively. Moreover, the TGI is 5.78 µM in the assay with COLO 205 colon; 8.06 µM in the assay on HL-60(TB) leukemia; more than 100 µM with IGROV1 ovarian; more than 100 µM in the assay on K-562 leukemia; more than 100 µM in the assay on KM12 colon; 4.36 µM in the assay on MDA-MB-435. Further, the TGI in the assay on SF-295 CNS was 8.54 µM; with SK-MEL-5 melanoma, 21.4 µM; in the assay on T-47D breast, more than 100 µM.
As for `O=C1c2ccccc2C(=O)c2c1ccc1c2OCO1`, the TGI with COLO 205 colon, with HL-60(TB) leukemia, with IGROV1 ovarian, with KM12 colon, in the assay on MDA-MB-435 and in the assay on SF-295 CNS was more than 100 µM each time. The TGI in the assay with SK-MEL-5 melanoma and with T-47D breast was more than 100 µM in each case.
Regarding `CC(C)Oc1ccc(C(=O)N[C@H](CNC(=O)CN(C)C)Cc2ccc(-c3cn4cccc([C@H](C)O)c4n3)cc2)cc1Cl`, the GI50 in the assay with COLO 205 colon was 0.0396 µM; with IGROV1 ovarian, 11.1 µM; in the assay on K-562 leukemia, 0.0375 µM; in the assay on KM12 colon it was 0.0381 µM; in the assay with MDA-MB-435, 0.0293 µM; in the assay with SF-295 CNS, 0.0372 µM. The GI50 in the assay on SK-MEL-5 melanoma was 0.33 µM; in the assay on T-47D breast, 3.72 µM. In addition, the concentration for total growth inhibition (TGI) in the assay with COLO 205 colon came out at 13.2 µM; in the assay on IGROV1 ovarian, 31 µM; with K-562 leukemia, 14.7 µM; in the assay with KM12 colon, 18 µM; in the assay with MDA-MB-435, 12.8 µM; in the assay with SF-295 CNS, 14.6 µM. Moreover, the TGI was 2.82 µM with SK-MEL-5 melanoma and 30.3 µM in the assay on T-47D breast.
Regarding `COc1cc(OC)cc(-c2cncn2-c2ccc(-c3nc4cc(OC)c(OC)c(OC)c4s3)cc2)c1`, the GI50 with COLO 205 colon was 3.85 µM; in the assay on HL-60(TB) leukemia, 2.43 µM; in the assay with IGROV1 ovarian it was 9.6 µM; with K-562 leukemia, 3.57 µM; in the assay on KM12 colon, 5.54 µM; with MDA-MB-435, 6.07 µM. The GI50 in the assay with SF-295 CNS is 3.64 µM; in the assay with SK-MEL-5 melanoma, 2.85 µM; in the assay with T-47D breast, 4.74 µM. In addition, the TGI with COLO 205 colon, in the assay on HL-60(TB) leukemia, with IGROV1 ovarian, in the assay with K-562 leukemia, in the assay on KM12 colon and in the assay on MDA-MB-435 was more than 100 µM in each case. The TGI in the assay with SF-295 CNS is 52.9 µM; in the assay on SK-MEL-5 melanoma it was more than 100 µM; with T-47D breast, more than 100 µM.
For `CCCN1CCN(c2ccc3nc(-c4ccc5nc(-c6ccc(OCC)c(OCC)c6)[nH]c5c4)[nH]c3c2)CC1`, the GI50 in the assay with CCRF-CEM leukemia was 0.394 µM; in the assay with COLO 205 colon, 0.164 µM; with HL-60(TB) leukemia, 0.339 µM; with IGROV1 ovarian, 0.475 µM; in the assay with KM12 colon, 0.684 µM; in the assay with MDA-MB-435 it was 0.532 µM. For the same compound, the values for the concentration for 50% growth inhibition (GI50) in the assay with SF-295 CNS, in the assay with SK-MEL-5 melanoma and in the assay on T-47D breast were 0.391 µM, 0.424 µM and 0.428 µM, respectively. Besides, the TGI in the assay on CCRF-CEM leukemia amounted to 3.07 µM; with COLO 205 colon, 1.4 µM; with HL-60(TB) leukemia it was 2.74 µM; in the assay on IGROV1 ovarian, 2.42 µM; in the assay with KM12 colon, 2.08 µM; with MDA-MB-435, 1.81 µM. Besides, the TGI turned out to be 2.03 µM in the assay on SF-295 CNS, 1.77 µM in the assay on SK-MEL-5 melanoma and 5.66 µM with T-47D breast.
In the case of `C=C1C(=O)OC2/C=C(\C)C3OC3/C=C(/C(=O)OC)C(OC(C)=O)C(OC(=O)C(C)(O)C(C)OC(C)=O)C12` (configuration not stated), the concentration for total growth inhibition (TGI) with CCRF-CEM leukemia stood at 3.04 µM; with COLO 205 colon, 8.97 µM; in the assay on IGROV1 ovarian it was 5.71 µM; in the assay on K-562 leukemia, 17.1 µM; in the assay on KM12 colon, 6.36 µM; in the assay on MDA-MB-435, 4.84 µM. Besides, the TGI was determined as 21.5 µM in the assay with SF-295 CNS, 7.09 µM with SK-MEL-5 melanoma and 36.8 µM in the assay with T-47D breast.
Turning to `COc1cc2c3c(n(CCCCl)c(=O)c2cc1OC)-c1ccc(C#N)cc1C3=O`, the GI50 with CCRF-CEM leukemia is 3.59 µM; in the assay on COLO 205 colon, 43.3 µM; in the assay on IGROV1 ovarian it was 3.64 µM; in the assay with K-562 leukemia it was more than 100 µM; with KM12 colon it was more than 100 µM; in the assay on MDA-MB-435, more than 100 µM. The results for the GI50 with SF-295 CNS, in the assay with SK-MEL-5 melanoma and in the assay on T-47D breast were 5 µM, 90.9 µM and more than 100 µM, respectively. Further, the TGI is more than 100 µM in the assay with CCRF-CEM leukemia; more than 100 µM with COLO 205 colon; 23.1 µM with IGROV1 ovarian; more than 100 µM in the assay on K-562 leukemia; more than 100 µM in the assay on KM12 colon; more than 100 µM in the assay on MDA-MB-435. Also, the TGI with SF-295 CNS was 18.8 µM; in the assay with SK-MEL-5 melanoma, more than 100 µM; in the assay with T-47D breast, more than 100 µM.
For `COc1ccc(CNc2nc(NCc3ccc(OC)cc3)c3n[nH]c(C(C)C)c3n2)cc1`, the GI50 was 3.73 µM with CCRF-CEM leukemia; 2.75 µM in the assay with HL-60(TB) leukemia; 4.38 µM with IGROV1 ovarian; 3.13 µM with K-562 leukemia; 4.29 µM in the assay on KM12 colon; 3.17 µM in the assay with MDA-MB-435. Moreover, the GI50 in the assay on SF-295 CNS is 3.24 µM; in the assay on SK-MEL-5 melanoma, 1.57 µM; in the assay with T-47D breast, 3.38 µM. Besides, the TGI was 15.4 µM with CCRF-CEM leukemia; 6.44 µM in the assay with HL-60(TB) leukemia; 13.7 µM in the assay with IGROV1 ovarian; 11.7 µM in the assay on K-562 leukemia; more than 100 µM in the assay with KM12 colon; 11.1 µM with MDA-MB-435. In addition, the TGI in the assay on SF-295 CNS was found to be 9.96 µM; in the assay with SK-MEL-5 melanoma, 3.01 µM; in the assay with T-47D breast it was 42.6 µM.
